Publication PMC5794259, “Novel ATP-cone-driven allosteric regulation of ribonucleotide reductase via the radical-generating subunit” (eLife, 2018)
Where “and” joins values, the source holds several entries; their conditions need not be identical. Equal values may be shown once.

T1: s-site in NrdA (Leeuwenhoekiella blandensis, UniProt A3XHF8)
T1 sequence (A3XHF8 1-600): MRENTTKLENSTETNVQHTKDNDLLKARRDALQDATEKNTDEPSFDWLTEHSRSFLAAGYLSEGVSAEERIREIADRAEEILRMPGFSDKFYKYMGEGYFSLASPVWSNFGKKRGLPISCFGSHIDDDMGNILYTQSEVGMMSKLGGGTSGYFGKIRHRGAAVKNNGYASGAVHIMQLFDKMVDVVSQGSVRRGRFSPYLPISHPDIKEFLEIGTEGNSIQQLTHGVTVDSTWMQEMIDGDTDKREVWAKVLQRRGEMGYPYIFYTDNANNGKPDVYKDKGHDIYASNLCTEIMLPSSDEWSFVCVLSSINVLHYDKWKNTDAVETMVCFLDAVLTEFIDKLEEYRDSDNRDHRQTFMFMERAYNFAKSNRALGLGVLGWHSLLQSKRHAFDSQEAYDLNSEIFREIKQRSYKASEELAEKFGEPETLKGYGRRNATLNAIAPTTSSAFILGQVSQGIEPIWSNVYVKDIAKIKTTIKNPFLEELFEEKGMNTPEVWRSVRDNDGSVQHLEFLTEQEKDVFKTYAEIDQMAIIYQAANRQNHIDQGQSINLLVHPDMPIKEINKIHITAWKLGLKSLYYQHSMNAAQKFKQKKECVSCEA
T1 sequence (A3XHF9 100-427 partner): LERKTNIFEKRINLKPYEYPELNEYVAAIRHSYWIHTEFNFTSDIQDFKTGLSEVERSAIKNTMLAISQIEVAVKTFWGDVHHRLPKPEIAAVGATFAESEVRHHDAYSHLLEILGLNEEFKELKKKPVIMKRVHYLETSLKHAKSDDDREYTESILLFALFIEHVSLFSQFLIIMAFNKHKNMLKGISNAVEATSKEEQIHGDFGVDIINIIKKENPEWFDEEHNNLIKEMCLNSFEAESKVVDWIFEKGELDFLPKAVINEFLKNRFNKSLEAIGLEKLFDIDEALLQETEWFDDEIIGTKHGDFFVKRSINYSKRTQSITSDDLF

B1: Leeuwenhoekiella blandensis NrdBi (wild type NrdB, radical-generating subunit of class I ribonucleotide reductase) (enzyme, UniProt A3XHF9 1-427, looked up)
chain: MSSQEIKKIIKRDYSTAPFVLEKITNAIANAMAALGHGSEQDAKLISMQVYESLLNNKEQESEYIPTVEQVQDMVEDKLMSSEFHDVAKAYIIYRNKRALERKTNIFEKRINLKPYEYPELNEYVAAIRHSYWIHTEFNFTSDIQDFKTGLSEVERSAIKNTMLAISQIEVAVKTFWGDVHHRLPKPEIAAVGATFAESEVRHHDAYSHLLEILGLNEEFKELKKKPVIMKRVHYLETSLKHAKSDDDREYTESILLFALFIEHVSLFSQFLIIMAFNKHKNMLKGISNAVEATSKEEQIHGDFGVDIINIIKKENPEWFDEEHNNLIKEMCLNSFEAESKVVDWIFEKGELDFLPKAVINEFLKNRFNKSLEAIGLEKLFDIDEALLQETEWFDDEIIGTKHGDFFVKRSINYSKRTQSITSDDLF
notes: NrdBi, radical-generating subunit of the class I RNR of Leeuwenhoekiella blandensis sp. nov. strain MED217; GenBank EAQ51288; amplified from genomic DNA with primers from the start codon to the stop codon; ATP-cone 1-103, linker 104-106, core 107-398, C-terminus 399-427; pET-28a(+) construct with N-terminal hexahistidine tag and thrombin site; Oligomeric state depends on nucleotide: dimer with …

Assays:
[1] = tested on: L. blandensis class I RNR; assay: Four-substrate activity assay, allosteric specificity regulation; assay type: biochemical, Leeuwenhoekiella blandensis; conditions: all four substrates 0.5 mM each, effector 2 mM, 1 µM NrdB and 4 µM NrdA
Description: (§1) Enzyme assays were performed at room temperature in 50 mM Tris-HCl at pH 8 in volumes of 50 μl. Reaction conditions, giving maximal activity were determined experimentally. […] Mixtures of 0.5 μM NrdA and 2 μM wild type NrdB or NrdB∆99 (for determination of s-site KL) (Figure 3a–b) or 0.5 μM of NrdB and 2 uM NrdA (for determination of a-site KL), (Figure 3c–f) were used. Some components were explicitly varied in specific experiments. Generally, 0.8 mM CDP was used as substrate. […] When dTTP was used as an s-site effector, 0.5 mM or 0.8 mM GDP was used as substrate. In four substrate assays, the four substrates CDP, ADP, GDP and UDP were simultaneously present in the mixture at concentrations of 0.5 mM each. The substrate mixture was added last to start the reactions. Certain assays were performed in the presence of Mn(CH3COO)2 or FeNH4(SO4): 20 μM of the indicated metal was added to 10 μM NrdB or NrdB∆99 protein, incubated for 10 min, mixed with NrdA and added to the reaction mixture.
(§2) Enzyme reactions were incubated for 10–30 min and then stopped by the addition of methanol. The chosen incubation time gave a maximum substrate turnover of 30%. […] Compound identification was achieved by comparison with injected standards. Relative quantification was obtained by peak height measurements in the chromatogram (UV absorbance at 271 nm) in relation to standards. Specific activities of either NrdA (Figure 2a–b) or NrdB (Figure 2c–f) were determined. Specific activities varied between protein preparations. In some cases the data was standardized to activity percent, where 100% was determined as maximum enzyme activity in a specific condition.

[2] = molecular target: T2, NrdB (Leeuwenhoekiella blandensis, UniProt A3XHF9); assay: Isothermal titration calorimetry (ITC), nucleotide binding to NrdB; conditions: for Kd: one-set-of-sites model; for N (binding stoichiometry): per NrdB monomer, for dATP kept constant N = 2, 59% active protein
Description: Isothermal titration calorimetry (ITC) experiments were carried out on a MicroCal PEAQ-ITC system (Malvern Instruments Ltd) in a buffer containing 25 mM HEPES (pH 7.65), 150 mM NaCl, and 10% glycerol, 2 mM tris(2-carboxyethyl)phosphine, and 5 mM MgCl2. Measurements were done at 10°C. The initial injection volume was 0.4 μl over a duration of 0.8 s. All subsequent injection volumes were 2–2.5 μl over 4–5 s with a spacing of 150 s between the injections. Data for the initial injection were not considered. For dATP binding analysis, the concentration of NrdB in the cell was 12 µM and dATP in syringe 120 or 140 µM. Reverse titrations were performed with 113 µM NrdB in the syringe and 12 or 30 µM dATP in the cell. For titration of dATP into NrdB∆99, protein concentration in the cell and dATP concentration in the syringe were 50 µM and 900 µM respectively. […] For titration of ATP into NrdB, cell and syringe concentrations were 50 and 1600 µM respectively. The data were analyzed using the built-in one set of sites model of the MicroCal PEAQ-ITC Analysis Software (Malvern Instruments Ltd). A fixed ligand/protein stoichiometry of 2 was used for dATP to NrdB titrations. Standard deviations in thermodynamic parameters, N and Kd were estimated from the fits of three different titrations.

[3] = molecular target: T1, s-site in NrdA; assay: Enzyme activity assay, CDP reduction, effector titration with NrdB∆99 (s-site); assay type: biochemical; conditions: 0.5 µM NrdA and 2 µM NrdB∆99, read-out: KL (s-site), concentration of allosteric effector that gives half maximal enzyme activity
Description: Enzyme assays were performed at room temperature in 50 mM Tris-HCl at pH 8 in volumes of 50 μl. Reaction conditions, giving maximal activity were determined experimentally. […] Mixtures of 0.5 μM NrdA and 2 μM wild type NrdB or NrdB∆99 (for determination of s-site KL) (Figure 3a–b) or 0.5 μM of NrdB and 2 uM NrdA (for determination of a-site KL), (Figure 3c–f) were used. Some components were explicitly varied in specific experiments. Generally, 0.8 mM CDP was used as substrate. […] When dTTP was used as an s-site effector, 0.5 mM or 0.8 mM GDP was used as substrate. […]
Enzyme reactions were incubated for 10–30 min and then stopped by the addition of methanol. […] Relative quantification was obtained by peak height measurements in the chromatogram (UV absorbance at 271 nm) in relation to standards. Specific activities of either NrdA (Figure 2a–b) or NrdB (Figure 2c–f) were determined. […] In some cases the data was standardized to activity percent, where 100% was determined as maximum enzyme activity in a specific condition.
(§3) From a direct plot of activity versus concentration of effector, the KL values for binding of effectors to the s-site and the a-site, were calculated in SigmaPlot using the equation: V=Vmax×[dNTP]/(KL+[dNTP]) and Ki for non-competitive dATP inhibition at NrdB was calculated in Sigmaplot using the equation: V=Vmax/(1+[dNTP]/Ki)

[4] = molecular target: L. blandensis RNR, a-site (NrdB-linked ATP-cone) (Leeuwenhoekiella blandensis, UniProt A3XHF9); assay: Enzyme activity assay with wild type NrdB (overall activity regulation, a-site); assay type: biochemical; conditions: for interaction with the a-site (effect on GDP reduction): 2 mM nucleotide, s-site saturating dTTP (2 mM), 4 µM NrdA and 1 µM NrdB
Description: as §1, §2, §3

[5] = molecular target: T2, NrdB; assay: GEMMA analysis of NrdB oligomers
Description: In GEMMA, biomolecules are electrosprayed into gas phase, neutralized to singly charged particles, and the gas phase electrophoretic mobility is measured with a differential mobility analyzer. The mobility of an analyzed particle is proportional to its diameter, which therefore allows for quantitative analysis of the different particle sizes contained in a sample ([Kaufman et al., 1996]). The GEMMA instrumental setup and general procedures were as described previously ([Rofougaran et al., 2008]). NrdA, NrdB and NrdB∆99 proteins were equilibrated by Sephadex G-25 chromatography into a buffer containing 100 mM ammonium acetate, pH 7.8. In addition, 2 mM DTT was added to the NrdA protein solutions to increase protein stability. Prior to GEMMA analysis, the protein samples were diluted to a concentration of 0.025–0.1 mg/ml in a buffer containing 20 mM ammonium acetate, pH 7.5, 0.005% (v/v) Tween 20, nucleotides (when indicated), and magnesium acetate (equimolar to the total nucleotide concentration), incubated for 5 min at room temperature, centrifuged and applied to the GEMMA instrument. Protein concentrations higher than normally recommended for GEMMA were needed to see the larger oligomeric complexes and the experiments to measure NrdA-NrdB interactions were run at as low flow rate as possible (driven by 1.4 Psi pressure) to minimize false interactions that may appear with elevated protein concentration if the flow-rate recommended by the manufacturer is used (3.7 Psi). Most of our experiments were performed with a flow rate driven by 2 Psi.

[6] = molecular target: the molecule itself; assay: GEMMA (gas-phase electrophoretic macromolecule analysis); with 50 µM dATP and equimolar magnesium acetate; 20 mM ammonium acetate pH 7.5, 0.005% Tween 20; NrdB 0.1 mg/ml (~2 µM) or NrdB∆99
[7] = molecular target: the molecule itself; assay: SEC; with ATP; Superdex 200 10/300 GL at room temperature; 50 mM Tris-HCl pH 7.6, 150 mM KCl, 10 mM MgCl2; NrdB 10 µM

interaction with the a-site (effect on GDP reduction) [4]	Molecule	effect of s-site effector on substrate reduction [1]	-TΔS ([2]; 10°C) [kcal/mol]	ΔG ([2]; 10°C) [kcal/mol]	Kd ([2]; 10°C) [µM]	N (binding stoichiometry) ([2]; 10°C)	EC50 [3] [µM]	also measured
	Nc1nc2c(ncn2[C@H]2C[C@H](O)[C@@H](COP(=O)(O)OP(=O)(O)OP(=O)(O)O)O2)c(=O)[nH]1 [dGTP]	stimulated the reduction of ADP and GDP						
	Nc1ncnc2c1ncn2[C@@H]1O[C@H](COP(=O)(O)OP(=O)(O)OP(=O)(O)O)[C@@H](O)[C@H]1O [ATP]	stimulated the reduction of CDP and UDP	4.78 ± 0.96	-5.74	38 ± 2	2.2 and 2.2 ± 0.4	30	lower affinity compared to dATP ([2]; from Kd, ITC): 38 fold; EC50 [4]: 96 µM; effect on enzyme activity ([4]; CDP reduction, 0.5 µM NrdA and 2 µM wild type NrdB): clearly activated the enzyme
	Nc1ncnc2c1ncn2[C@H]1C[C@H](O)[C@@H](COP(=O)(O)OP(=O)(O)OP(=O)(O)O)O1 [dATP]		11.2 ± 2.39	-7.89	1 ± 0.2	2	1.4	ΔH ([2]; 10°C): -18.9 kcal/mol and -18.9 ± 2.39 kcal/mol; Ki [4]: 20 µM; concentration at which inhibitory ([4]; CDP reduction, 0.5 µM NrdA and 2 µM wild type NrdB, activates at low concentrations): ≥ 30 µM; effect on NrdB oligomer equilibrium ([5]; 50 µM nucleotide, 0.1 mg/ml NrdB (~2 µM)): dramatically shifted the equilibrium towards tetramers β4; EC50 ([5]; GEMMA, 2 Psi, NrdB (~1 μM), read-out: concentration at which NrdB tetramers reach half-maximum mass concentration): ~10 µM
no effect	Nc1ncnc2c1ncn2[C@@H]1O[C@H](COP(=O)(O)O)[C@@H](O)[C@H]1O [AMP]							
no effect	Nc1ncnc2c1ncn2[C@@H]1O[C@H](COP(=O)(O)OP(=O)(O)O)[C@@H](O)[C@H]1O [ADP]							
	B1							stoichiometry N [6]: 4; stoichiometry N [7]: 2
